Drawing on patent US20260242372A1, “NOVEL IMIDAZOPYRIDINE AND PYRAZOLOPYRIDINE SULFONAMIDE DERIVATIVES” (Hoffmann-La Roche Inc., priority 2022, published 2026), this text covers IC50 for 30 compounds.

Structures are written as SMILES.

Usually IC50 stands for the concentration needed to halve the response being measured. Lower therefore signals greater potency in that assay.

The target of the assay is human GPR17 short isoform (Homo sapiens, UniProt Q13304). The assay is described as follows: GPR17 cAMP assay (hGPR17 cAMP, TR-FRET, antagonist mode). The format is cell-based. The settings on record: CHO-K1 cells stably expressing human GPR17 short isoform; EC80 of agonist MDL29,951; forskolin 15 μM; 30 min at room temperature. Here is the method:
CHO-K1 cells stably expressing vector containing untagged human GPR17 short isoform (Roche) were cultured at 37° C./5% CO2 in DMEM (Dulbecco's Modified Eagle Medium): F-12 (1:1) supplemented with 10% foetal bovine serum and 400 μg/ml Geneticin.
Changes in intracellular cyclic adenosine monophosphate (cAMP) levels were quantified using the Nano-TRF Detection Assay kit (Roche Diagnostics, Cat. No. 05214386001). This assay allows for direct cAMP quantification in a homogeneous solution. CAMP is detected based on time-resolved fluorescence energy transfer (TR-FRET) and competitive binding of ruthenylated cAMP and endogenous cAMP to an anti-cAMP monoclonal antibody labeled with AlexaFluor-700. The Ruthenium complex serves as the FRET donor and transfers energy to AlexaFluor-700. The FRET signal is inversely proportional to the CAMP concentration.
CHO-GPR17S cells were detached with Accutase and resuspended in assay buffer consisting of Hank's Balanced Salt Solution (HBSS), 10 mM HEPES (4-(2-hydroxyethyl) piperazine-1-ethanesulfonic acid solution) and 0.1% bovine serum albumin (pH 7.4). The cells were seeded in black 384-well plates (Corning) at a density of 10′000 cells/20 μl assay buffer until the addition of compounds.
Test antagonist compounds were serially diluted in dimethyl sulfoxide (DMSO) and spotted in 384-well plates. The compounds were then diluted in HBSS buffer supplemented with an EC80 concentration of MDL29,951 (3-(2-Carboxy-4,6-dichloroindol-3-yl) propionic acid) (GPR17 agonist) plus 3-Isobutyl-1-methylxanthine (IBMX) (0.5 mM final concentration) and added to the cells at room temperature. Forskolin (15 μM final concentration) was added 5 minutes after the test compounds and the cells were incubated at room temperature for 30 minutes. The assay was stopped by adding cAMP detection mix (containing detergents for cell lysis) for 90 minutes at room temperature.
Cellular cAMP was measured using a Paradigm reader (Molecular Devices). The raw data was used to calculate the FRET signal based on the assay's P-factor as per cAMP kit instructions. The data was normalized to the maximal activity of a reference antagonist and dose response curves were fitted to the percent activity of the test compounds using a sigmoidal dose response model (Genedata Screener).
(Cyclic AMP is a second messenger, typically raised through Gs and lowered through Gi signalling.)

human GPR17 short isoform, sequence (Q13304 29-367): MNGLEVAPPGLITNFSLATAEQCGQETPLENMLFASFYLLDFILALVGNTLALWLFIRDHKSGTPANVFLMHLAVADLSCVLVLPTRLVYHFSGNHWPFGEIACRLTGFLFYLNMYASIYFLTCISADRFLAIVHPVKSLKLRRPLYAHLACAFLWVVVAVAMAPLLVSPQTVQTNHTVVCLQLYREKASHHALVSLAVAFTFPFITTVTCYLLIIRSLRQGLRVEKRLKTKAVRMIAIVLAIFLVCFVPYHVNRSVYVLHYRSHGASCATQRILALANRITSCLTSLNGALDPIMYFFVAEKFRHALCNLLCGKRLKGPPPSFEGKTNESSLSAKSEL

As for `COc1nc(OCC(F)F)c(F)cc1NS(=O)(=O)c1cnc2n1CCC(C)O2` (stereo not drawn) [Example 53, N-[6-(2,2-difluoroethoxy)-5-fluoro-2-methoxy-3-pyridyl]-7-methyl-6,7-dihydro-5H-imidazo[2,1-b][1,3]oxazine-3-sulfonamide], the half-inhibitory concentration (IC50) was found to be 101 nM.
The figure for `COc1nc(NS(=O)(=O)c2cnc3cc(C)ccn23)nc(OC)c1C` [Example 54, N-(4,6-dimethoxy-5-methyl-pyrimidin-2-yl)-7-methyl-imidazo[1,2-a]pyridine-3-sulfonamide] is 112 nM; for `COc1ccn2c(S(=O)(=O)Nc3cc(F)c(CC#N)cc3F)cnc2c1` [Example 55, N-[4-(cyanomethyl)-2,5-difluoro-phenyl]-7-methoxy-imidazo[1,2-a]pyridine-3-sulfonamide] it is 116 nM; for `O=S(=O)(Nc1cc(F)c(OC(F)F)nc1OC(F)F)c1cnc2nc(C3CC3)ccn12` [Example 56, N-[2,6-bis(difluoromethoxy)-5-fluoro-3-pyridyl]-7-cyclopropyl-imidazo[1,2-a]pyrimidine-3-sulfonamide] it is 132 nM.
As for `COc1c(C)ccn2c(S(=O)(=O)Nc3cc(F)c(Br)cc3F)cnc12` [Example 57, N-(4-bromo-2,5-difluoro-phenyl)-8-methoxy-7-methyl-imidazo[1,2-a]pyridine-3-sulfonamide], the half-maximal inhibitory concentration (IC50) is 137 nM.
To `COc1nc(OCC(F)F)c(F)cc1NS(=O)(=O)c1cnc2c(=O)n(C)ccn12` [Example 58, N-[6-(2,2-difluoroethoxy)-5-fluoro-2-methoxy-3-pyridyl]-8-keto-7-methyl-imidazo[1,2-a]pyrazine-3-sulfonamide] belongs 174 nM; to `COc1nc(OCC(F)F)c(F)cc1NS(=O)(=O)c1cnc2cc(C#N)ccn12` [Example 59, 7-cyano-N-[6-(2,2-difluoroethoxy)-5-fluoro-2-methoxy-3-pyridyl]imidazo[1,2-a]pyridine-3-sulfonamide], 176 nM; to `COc1ccn2c(S(=O)(=O)Nc3cc(F)c(OCC(F)F)nc3OC)cnc2c1C#N` [Example 60, 8-cyano-N-[6-(2,2-difluoroethoxy)-5-fluoro-2-methoxy-3-pyridyl]-7-methoxy-imidazo[1,2-a]pyridine-3-sulfonamide], 179 nM.
The figure for `COc1c(Cl)ccn2c(S(=O)(=O)Nc3cc(F)c(CC#N)cc3F)cnc12` [Example 61, 7-chloro-N-[4-(cyanomethyl)-2,5-difluoro-phenyl]-8-methoxy-imidazo[1,2-a]pyridine-3-sulfonamide] is 181 nM; for `COc1nc(OCC(F)F)c(F)cc1NS(=O)(=O)c1cnc2n1CCC(OC)C2` (stereo not drawn) [Example 62, N-[6-(2,2-difluoroethoxy)-5-fluoro-2-methoxy-3-pyridyl]-7-methoxy-5,6,7,8-tetrahydroimidazo[1,2-a]pyridine-3-sulfonamide] it is 217 nM.
To `COc1nc(OCC(F)F)c(F)cc1NS(=O)(=O)c1cnc2n1CCCC2` [Example 63, N-[6-(2,2-difluoroethoxy)-5-fluoro-2-methoxy-3-pyridyl]-5,6,7,8-tetrahydroimidazo[1,2-a]pyridine-3-sulfonamide] belongs 217 nM.
The compound `N#CCc1cc(F)c(NS(=O)(=O)c2cnc3cc(Cl)ccn23)cc1F` [Example 64, 7-chloro-N-(4-(cyanomethyl)-2,5-difluorophenyl)imidazo[1,2-a]pyridine-3-sulfonamide] gave a half-maximal inhibitory concentration (IC50) of 251 nM.
`COc1nc(OCC(F)F)c(F)cc1NS(=O)(=O)c1cnc2c(C#N)c(OC(F)F)ccn12` [Example 65, 8-cyano-N-[6-(2,2-difluoroethoxy)-5-fluoro-2-methoxy-3-pyridyl]-7-(difluoromethoxy)imidazo[1,2-a]pyridine-3-sulfonamide] displayed an IC50 of 270 nM.
For the compound `Cc1ccn2c(S(=O)(=O)Nc3cc(F)c(OC(F)F)nc3OC(F)F)cnc2c1C#N` [Example 66, N-[2,6-bis(difluoromethoxy)-5-fluoro-3-pyridyl]-8-cyano-7-methyl-imidazo[1,2-a]pyridine-3-sulfonamide], the concentration for half-maximal inhibition (IC50) was 289 nM.
To `Cc1ccn2c(S(=O)(=O)Nc3cc(F)c(CC#N)cc3F)cnc2c1C#N` [Example 67, 8-cyano-N-[4-(cyanomethyl)-2,5-difluoro-phenyl]-7-methyl-imidazo[1,2-a]pyridine-3-sulfonamide] belongs 301 nM; to `N#CCc1cc(F)c(NS(=O)(=O)c2cnc3c(F)c(Cl)ccn23)cc1F` [Example 68, 7-chloro-N-[4-(cyanomethyl)-2,5-difluoro-phenyl]-8-fluoro-imidazo[1,2-a]pyridine-3-sulfonamide], 329 nM.
The figure for `COc1nc(OCC(F)F)c(F)cc1NS(=O)(=O)c1cnc2c(C#N)cccn12` [Example 69, 8-cyano-N-[6-(2,2-difluoroethoxy)-5-fluoro-2-methoxy-3-pyridyl]imidazo[1,2-a]pyridine-3-sulfonamide] is 393 nM; for `COc1nc(C2COC2)c(F)cc1NS(=O)(=O)c1cnc2cc(Cl)ccn12` [Example 70, 7-chloro-N-[5-fluoro-2-methoxy-6-(oxetan-3-yl)-3-pyridyl]imidazo[1,2-a]pyridine-3-sulfonamide] it is 407 nM.
The figure for `COc1nc(OCC(F)F)c(F)cc1NS(=O)(=O)c1cnc2c(C)cccn12` [Example 71, N-[6-(2,2-difluoroethoxy)-5-fluoro-2-methoxy-3-pyridyl]-8-methyl-imidazo[1,2-a]pyridine-3-sulfonamide] is 413 nM.
Compound `COc1nc(OCC(F)F)c(F)cc1NS(=O)(=O)c1cnc2n1CC(C)C2` (stereo not drawn) [Example 72, N-[6-(2,2-difluoroethoxy)-5-fluoro-2-methoxy-3-pyridyl]-6-methyl-6,7-dihydro-5H-pyrrol[1,2-a]imidazole-3-sulfonamide] returned a 50% inhibitory concentration (IC50) of 449 nM.
The figure for `COc1ccn2c(S(=O)(=O)Nc3cc(F)c(CC#N)cc3F)cnc2n1` [Example 73, N-[4-(cyanomethyl)-2,5-difluoro-phenyl]-7-methoxy-imidazo[1,2-a]pyrimidine-3-sulfonamide] is 876 nM; for `COc1nc(NS(=O)(=O)c2cnc3cc(Cl)ccn23)ncc1OCCF` [Example 74, 7-chloro-N-[5-(2-fluoroethoxy)-4-methoxy-pyrimidin-2-yl]imidazo[1,2-a]pyridine-3-sulfonamide] it is 897 nM; for `COc1nc(OCC(F)F)c(F)cc1NS(=O)(=O)c1cnc2n1CCC2C` (stereo not drawn) [Example 75, N-[6-(2,2-difluoroethoxy)-5-fluoro-2-methoxy-3-pyridyl]-7-methyl-6,7-dihydro-5H-pyrrol[1,2-a]imidazole-3-sulfonamide] it is 974 nM.
For `Cc1ccn2c(S(=O)(=O)Nc3cc(F)c(CC#N)cc3F)cnc2n1` [Example 76, N-[4-(cyanomethyl)-2,5-difluoro-phenyl]-7-methyl-imidazo[1,2-a]pyrimidine-3-sulfonamide], the IC50 was 1030 nM.
With `COc1nc(CC#N)c(F)cc1NS(=O)(=O)c1cnn2cc(Br)ccc12` [Example 77, 6-bromo-N-[6-(cyanomethyl)-5-fluoro-2-methoxy-3-pyridyl]pyrazolo[1,5-a]pyridine-3-sulfonamide], the IC50 was 6 nM.
To `COc1nc(OCC(F)F)c(F)cc1NS(=O)(=O)c1cnn2cc(Br)ccc12` [Example 78, 6-bromo-N-[6-(2,2-difluoroethoxy)-5-fluoro-2-methoxy-3-pyridyl]pyrazolo[1,5-a]pyridine-3-sulfonamide] belongs 10 nM; to `COc1nc(NS(=O)(=O)c2cnn3cc(Br)ccc23)c(F)cc1CC#N` [Example 79, 6-bromo-N-[5-(cyanomethyl)-3-fluoro-6-methoxy-2-pyridyl]pyrazolo[1,5-a]pyridine-3-sulfonamide], 20 nM; to `COc1nc(NS(=O)(=O)c2cnn3cc(Br)ccc23)c(F)cc1OCCF` [Example 80, 6-bromo-N-[3-fluoro-5-(2-fluoroethoxy)-6-methoxy-2-pyridyl]pyrazolo[1,5-a]pyridine-3-sulfonamide], 26 nM.
To `COc1nc(NS(=O)(=O)c2cnn3cc(Br)ccc23)c(F)cc1OCC(F)F` [Example 81, 6-bromo-N-[5-(2,2-difluoroethoxy)-3-fluoro-6-methoxy-2-pyridyl]pyrazolo[1,5-a]pyridine-3-sulfonamide] belongs 49 nM; to `COc1nc(C2CC2)c(F)cc1NS(=O)(=O)c1cnn2cc(Br)ccc12` [Example 82, 6-bromo-N-(6-cyclopropyl-5-fluoro-2-methoxy-3-pyridyl)pyrazolo[1,5-a]pyridine-3-sulfonamide], 100 nM.
